Like-named read-outs stand apart in the source and are kept apart here. Marks after values point to notes of the source that are not given here.
Columns and labels:
[1] = parameters: method as in PMID 18991471; conditions: compared to esomeprazole, pantoprazole and rabeparzole; cited from earlier work
[2] = cited from earlier work
[3] = cited from earlier work; remark: listed apart in the source
[4] = parameters: method as in PMID 32461076; conditions: median; esomeprazole pre-treatment, Norvir tablet; cited from earlier work
[5] = Ritonavir plasma concentrations after oral intake of a Norvir tablet, control vs PPI condition (LC-MS/MS); type: in vivo, human; conditions: for AUC0-480min / Tmax: one Norvir tablet oral, fasted, median (range), n = 4
Method: All volunteers provided written informed consent before participating in the trial. Each trial day, the participant came to the radiology department at the University Hospitals Leuven after an overnight fast (at least 12 h). Water was allowed until the night before the trial except for the volume needed to swallow the PPI tablet. For the PPI condition, participants were pre-treated with a once-daily dose of Nexium (just before breakfast) starting two days prior to the trial day. On the morning of the trial, the final Nexium tablet was taken 2 h prior to the arrival time at the hospital, with as little water as possible to swallow the tablet. A daily dose of 40 mg esomeprazole for three days has shown to elevate and sustain the gastric and duodenal pH to values around 7.1 and 7.5, respectively, indicative of the acid-inhibitory effect. A venous catheter was placed in the subject’s arm and a blank blood sample (5 mL) was collected in heparinized tubes (BD Vacutainer systems, Plymouth, UK). […] In addition, subjects were placed in a Philips 1.5 T MRI System (Philips, Best, The Netherlands) to assess the gastric and duodenal fluid volume, once before administration of the study medication and afterwards at predetermined time points, i.e., 20, 40, 60, 90, 120, 150 and 180 min.
Blood samples were stored on ice during the remainder of the study day, before centrifugation at 2880× g, for 10 min at 4 °C (Centrifuge 5804R, Eppendorf, Hamburg, Germany). Plasma was collected and stored at −20 °C pending analysis. For analysis, a liquid-liquid extraction was performed in which 50 µL of plasma was added to 450 µL HBSS and vortexed for a few seconds. Lopinavir was used as internal standard: 100 µL of a 200 nM stock solution in 25% v/v DMSO-water was added to the mixture. Before extraction, the pH was adjusted by adding 500 µL of 40 mM borax buffer (pH = 9), followed by 5 mL of the extraction medium hexane—ethyl acetate (50:50, v/v) and shaken for 1 min. The mixture was centrifugated at 2880× g, for 5 min at 4 °C and the organic layer was transferred to a new test tube and evaporated to dryness under a gentle airflow. The residue was redissolved in 1 mL of methanol and vortexed for 30 s before another evaporation cycle. The resulting residue was reconstituted in 200 µL methanol—water (50:50, v/v) awaiting analysis.
For the analysis, a Waters ACQUITY UHPLC H-Class system consisting of a quaternary pump was used combined with a Waters Xevo TQ-S micro mass spectrometer (Waters, Milford, MA, USA). Separation took place on a Kinetex® column (2.6 µm XB-C18 100 A, 50 × 2.1 mm, Phenomenex, Utrecht, the Netherlands) using isocratic elution with methanol—0.1% formic acid (65:35, v/v) followed by a wash gradient and re-equilibration (Table 2). Column temperature was set at 35 °C and samples were kept in the autosampler at 15 °C. […] Peaks were detected with MS/MS, using electrospray ionization (ESI) as ion source. […] Fragmentation was induced by collision with argon. The system was operated in multi-reaction monitoring (MRM) mode with the mass transitions according to Table 3.

[6] = Duodenal fluid volume via MRI, control vs PPI condition; type: in vivo, human; conditions: for relative decrease in duodenal AUVC: first 180 min after Norvir tablet with 240 mL water, n = 5
Method: All volunteers provided written informed consent before participating in the trial. Each trial day, the participant came to the radiology department at the University Hospitals Leuven after an overnight fast (at least 12 h). Water was allowed until the night before the trial except for the volume needed to swallow the PPI tablet. For the PPI condition, participants were pre-treated with a once-daily dose of Nexium (just before breakfast) starting two days prior to the trial day. On the morning of the trial, the final Nexium tablet was taken 2 h prior to the arrival time at the hospital, with as little water as possible to swallow the tablet. […] A venous catheter was placed in the subject’s arm and a blank blood sample (5 mL) was collected in heparinized tubes (BD Vacutainer systems, Plymouth, UK). […] A scouting sequence was used in the coronal and transversal plane to allow correct sequence positioning. At each time point, three standardized sequences were used to acquire images; sequence parameters are depicted in Table 1. Images were taken during exhalation breath hold. Images were analysed using Horos™ (Version 3.3.6, Horos project), a free open source medical images viewer. […] This made the sequence unsuitable for fluid determination as the duodenum passes these blood vessels which would interfere with the outlining of the fluid present in the duodenum. Sequence 2 was therefore used as a localizer for the duodenum (i.e., determining the location of the duodenojejunal flexure (Figure 1). As free water lights up in a T2 weighted image, a trained operator semi-automatically traced all the bright spots in each slice for the stomach and duodenum, according to a published procedure. […] This cut-off value must be regarded as a rule of thumb and manual correction was made to account for bright organs like the gall bladder and obvious acquisition errors (e.g., illogical dark spots in the middle of a fluid filled stomach).

[7] = parameters: method as in PMID 32461076; conditions: daily dose of 40 mg esomeprazole for three days; cited from earlier work
[8] = Gastric fluid volume via MRI, control vs PPI condition; type: in vivo, human; conditions: for relative decrease in total gastric fluid volume (AUVC): first 180 min after Norvir tablet with 240 mL water, median, n = 5
Method: Each trial day, the participant came to the radiology department at the University Hospitals Leuven after an overnight fast (at least 12 h). Water was allowed until the night before the trial except for the volume needed to swallow the PPI tablet. For the PPI condition, participants were pre-treated with a once-daily dose of Nexium (just before breakfast) starting two days prior to the trial day. On the morning of the trial, the final Nexium tablet was taken 2 h prior to the arrival time at the hospital, with as little water as possible to swallow the tablet. […] A venous catheter was placed in the subject’s arm and a blank blood sample (5 mL) was collected in heparinized tubes (BD Vacutainer systems, Plymouth, UK). […] In addition, subjects were placed in a Philips 1.5 T MRI System (Philips, Best, The Netherlands) to assess the gastric and duodenal fluid volume, once before administration of the study medication and afterwards at predetermined time points, i.e., 20, 40, 60, 90, 120, 150 and 180 min.
Upon entering the MRI system, a rectangular dStream FlexCoverage Anterior coil (Ingenia 1.5 tesla, Philips, Best, The Netherlands) was placed on the torso of the subjects. A scouting sequence was used in the coronal and transversal plane to allow correct sequence positioning. […] Images were taken during exhalation breath hold.
Images were analysed using Horos™ (Version 3.3.6, Horos project), a free open source medical images viewer. Gastric and duodenal fluid volumes reported in this study were acquired with sequence 1. […] This made the sequence unsuitable for fluid determination as the duodenum passes these blood vessels which would interfere with the outlining of the fluid present in the duodenum.
As free water lights up in a T2 weighted image, a trained operator semi-automatically traced all the bright spots in each slice for the stomach and duodenum, according to a published procedure [21]. To differentiate between free water and other contents in the respective organs, a cut-off value (lower threshold) of 30% of the brightest voxel in either the stomach or the duodenum was applied. This cut-off value must be regarded as a rule of thumb and manual correction was made to account for bright organs like the gall bladder and obvious acquisition errors (e.g., illogical dark spots in the middle of a fluid filled stomach). Subsequently, a 3D image of the traced fluid was rendered and the fluid volume was calculated by adding up the fluid volumes of each slide (multiplying the surface area of the traced region of interest with the slice thickness).

[9] = PPI vs control condition, median, present study
[10] = PPI vs control condition, volunteer HV02

COc1ccc2[nH]c([S+]([O-])Cc3ncc(C)c(OC)c3C)nc2c1 (stereo not drawn) [omeprazole]
effect on the gastric fluid volume compared to other PPIs [1]: less pronounced effect on the gastric fluid volume | effect on plasma Cmax or AUC of ritonavir [2]: did not report an effect

CC(C)c1nc(CN(C)C(=O)N[C@H](C(=O)N[C@@H](Cc2ccccc2)C[C@H](O)[C@H](Cc2ccccc2)NC(=O)OCc2cncs2)C(C)C)cs1 [ritonavir]
Log P [3]: 4.3 | pKa ([3]; weak base): 2.6 | PPI-induced decrease in AUC0–480min [4]: 39.5% | PPI-induced decrease in Cmax [4]: 49.6% | delay in tmax [4]: 50% | AUC0-480min ([5]; PPI condition (esomeprazole 40 mg once daily for three days)): 2.5 · 10^5 (1.2 · 10^5–3.2 · 10^5) nmol·min/L | PPI-induced decrease in Cmax [5, 9]: 39.0% | delay in tmax [5, 9]: 10% | drop in plasma AUC [5, 10]: 65% | Tmax ([5]; both sexes, human, plasma, po, 40 mg, PPI condition (esomeprazole 40 mg once daily for three days), read-out: tmax (converted)): 3.75 h | Cmax ([5]; both sexes, human, plasma, po, 100 mg): 1130 nM | Tmax ([5]; both sexes, human, plasma, po, 100 mg, control condition, read-out: tmax (converted)): 3.22 h | AUC0-480min ([5]; control condition): 3.8 · 10^5 (2.6 · 10^5–5.9 · 10^5) nmol·min/L | Tmax ([5]; control condition): 192.5 (175–240) min

COc1ccc2nc([S@@+]([O-])Cc3ncc(C)c(OC)c3C)[nH]c2c1 [esomeprazole]
duodenal fluid volume ([6]; PPI condition, after Norvir tablet with 240 mL water, median): 8.6 mL | relative decrease in duodenal AUVC ([6]; PPI vs control condition, median): 33% | relative decrease in duodenal AUVC ([6]; PPI vs control condition, median, listed as PPI): 33.3% | drop in duodenal fluid AUVC [6, 10]: 37% | decrease in duodenal fluid volume ([6]; after PPI treatment, average over all volunteers): 32% | duodenal pH [7]: ~7.5 | gastric pH [7]: around 7.1 | relative decrease in gastric residual volume (GRV) ([8]; PPI vs control condition, fasted, prior to ritonavir intake, five volunteers): 41% | relative decrease in total gastric fluid volume (AUVC) ([8]; PPI vs control condition): 44% | relative decrease in total gastric fluid volume (AUVC) ([8]; PPI vs control condition, listed as PPI): 43.9% | gastric residual volume (GRV) ([8]; following pre-treatment with esomeprazole 40 mg for three days, fasted state, mean ± SD): 20 ± 15 mL

— publication PMC7408179 (Pharmaceutics, 2020)
